According to US20260272952A1, “CANNABINOIDS FOR TREATING NEUROINFLAMMATION” (Lundquist Institute for Biomedical Innovation at …, priority 2022, published 2026):

Test system: MPS IIIA neurons
Test: GABARAPL2 western blot in iPSC-derived cortical neurons treated with CBD
Assay type: cell-based, human
Details: CBD 1 μM and 5 μM, cortical neurons from MPS IIIA patients' iPSCs, with or without Bafilomycin A1 200 nM
Description: HCNT: human health controls; MPS IIIA: MPS IIIA forebrain neurons.
Cortical neurons differentiated from healthy control and MPS IIIA patients' iPSCs. […] GABARAPL2, a protein which involves in autophagy, was measured in a western blot assay (see FIG. 3).

For Cannabidiol [CBD], the GABARAPL2 accumulation was “decreases”.
